Several values for one entry are separate records, joined by “and”; a condition that tells them apart may be missing. Equal entries are not always repeated. Inconclusive results and toxic doses are left out. The calls were made as follows: active = survival T/C of 150% or more; inactive = T/C below 125% in these data.
Test system: CD2F1 mice, L1210 leukemia ip, survival T/C
Assay: NCI In Vivo Anticancer Drug Screen. Data for tumor model L1210 Leukemia (intraperitoneal) in CD2F1 (CDF1) mice
Conditions: endpoint: mean survival time, higher = longer survival
Summary of the method: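 In this screen, transplantable tumors were grown in mice given either the compound or its vehicle. Results were expressed as the treated measurement relative to the control measurement.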

[1] = dose: 100.0 mg/kg/injection, schedule: Q04DX002 (ip), vehicle: saline with Tween-80
[2] = dose: 200.0 mg/kg/injection, schedule: Q04DX002 (ip), vehicle: saline with Tween-80
[3] = dose: 400.0 mg/kg/injection, schedule: Q04DX002 (ip), vehicle: saline with Tween-80
[4] = dose: 100.0 mg/kg/injection, schedule: Q01DX001 (ip), vehicle: saline
[5] = dose: 200.0 mg/kg/injection, schedule: Q01DX001 (ip), vehicle: saline
[6] = dose: 100.0 mg/kg/injection, schedule: Q04DX003 (ip), vehicle: saline with Tween-80
[7] = dose: 200.0 mg/kg/injection, schedule: Q04DX003 (ip), vehicle: saline with Tween-80
[8] = dose: 400.0 mg/kg/injection, schedule: Q04DX003 (ip), vehicle: saline with Tween-80
[9] = dose: 100.0 mg/kg/injection, schedule: Q01DX009 (ip), vehicle: saline with Tween-80
[10] = dose: 200.0 mg/kg/injection, schedule: Q01DX009 (ip), vehicle: saline with Tween-80
[11] = dose: 400.0 mg/kg/injection, schedule: Q01DX009 (ip), vehicle: saline with Tween-80
[12] = dose: 100.0 mg/kg/injection, schedule: Q01DX001 (ip), vehicle: saline with Tween-80

Measured: T/C

O=C1C=C(O)C2C(=O)C1C1/C(=[N+](/[O-])O)C=C([N+](=O)[O-])C2C1[N+](=O)[O-] (stereo unspecified)
inactive: [1] 98 % of control | [2] 110 % of control | [3] 98 % of control

CC(NC(=O)CN)C(=O)O (stereo unspecified)
inactive: [4] 100 % of control | [5] 100 % of control | dose: 400.0 mg/kg/injection, schedule: Q01DX001 (ip), vehicle: saline 104 % of control

CCCCNc1c(C(=O)N2CCCCC2)cnc2c1cnn2CC
inactive: dose: 100.0 mg/kg/injection, schedule: Q04DX003 (ip), vehicle: saline 97 % of control | dose: 200.0 mg/kg/injection, schedule: Q04DX003 (ip), vehicle: saline 101 % of control

Cc1ccc(CNc2ccc(I)cc2)cc1
inactive: [6] 93 % of control | [7] 88 % of control | [8] 86 % of control

Cc1ccc(S(=O)(=O)Oc2cccc(C)c2)cc1
inactive: [9] 96 % of control | [6] 100 % of control | [10] 96 % of control | [7] 99 % of control | [11] 91 % of control | [8] 94 % of control

OC(c1ccccc1)(c1ccccc1)c1ccccc1C(O)(c1ccccc1)c1ccccc1
inactive: dose: 100.0 mg/kg/injection, schedule: Q01DX001 (ip), vehicle: Klucel (hydroxypropylcellulose) (HPC) 90 % of control | dose: 200.0 mg/kg/injection, schedule: Q01DX001 (ip), vehicle: Klucel (hydroxypropylcellulose) (HPC) 90 % of control

CC(=N\[O-])/C(C)=N/O.CC(=N\[O-])/C(C)=N/O.CC(=O)[O-].CC(=O)[O-].O.[Rh+2].[Rh+2]
inactive: dose: 0.78 mg/kg/injection, schedule: Q01DX009 (ip), vehicle: saline 88 % of control | dose: 3.13 mg/kg/injection, schedule: Q01DX009 (ip), vehicle: saline 96 % of control | dose: 6.25 mg/kg/injection, schedule: Q01DX009 (ip), vehicle: saline 91 % of control | dose: 12.5 mg/kg/injection, schedule: Q01DX009 (ip), vehicle: Klucel (hydroxypropylcellulose) (HPC) 95 % of control | dose: 12.5 mg/kg/injection, schedule: Q01DX009 (ip), vehicle: saline 93 % of control

C=C1[C@@H](C)[C@H]2[C@H](Cc3ccccc3)NC(=O)[C@]23OC(=O)/C=C/[C@H](O)CCC[C@@H](C)C/C=C/[C@H]3[C@@H]1O
inactive: dose: 0.5 mg/kg/injection, schedule: Q04DX002 (ip), vehicle: Klucel (hydroxypropylcellulose) (HPC) 100 % of control | dose: 1.0 mg/kg/injection, schedule: Q04DX002 (ip), vehicle: Klucel (hydroxypropylcellulose) (HPC) 103 % of control | dose: 2.0 mg/kg/injection, schedule: Q04DX002 (ip), vehicle: Klucel (hydroxypropylcellulose) (HPC) 100 % of control | dose: 4.0 mg/kg/injection, schedule: Q04DX002 (ip), vehicle: Klucel (hydroxypropylcellulose) (HPC) 103 % of control | dose: 8.0 mg/kg/injection, schedule: Q04DX002 (ip), vehicle: Klucel (hydroxypropylcellulose) (HPC) 95 % of control

Cc1ccc(NC2=NCCS2)c(C)c1
inactive: dose: 25.0 mg/kg/injection, schedule: Q01DX001 (ip), vehicle: saline with Tween-80 106 % of control | dose: 25.0 mg/kg/injection, schedule: Q01DX009 (ip), vehicle: saline with Tween-80 89 % of control and 95 % of control | dose: 25.0 mg/kg/injection, schedule: Q04DX002 (ip), vehicle: saline with Tween-80 104 % of control and 106 % of control | dose: 25.0 mg/kg/injection, schedule: Q04DX003 (ip), vehicle: saline with Tween-80 101 % of control | dose: 50.0 mg/kg/injection, schedule: Q01DX001 (ip), vehicle: saline with Tween-80 106 % of control | dose: 50.0 mg/kg/injection, schedule: Q01DX009 (ip), vehicle: saline with Tween-80 97 % of control and 103 % of control | dose: 50.0 mg/kg/injection, schedule: Q04DX002 (ip), vehicle: saline with Tween-80 95 % of control and 110 % of control | dose: 50.0 mg/kg/injection, schedule: Q04DX003 (ip), vehicle: saline with Tween-80 98 % of control | [12] 102 % of control | [9] 103 % of control | [6] 96 % of control

CNC(=S)SC
inactive: dose: 50.0 mg/kg/injection, schedule: Q01DX001 (ip), vehicle: saline 98 % of control | [4] 102 % of control | [5] 104 % of control

O=C(Nc1ccccc1C(F)(F)F)OCCOc1ccc(Br)cc1
inactive: dose: 100.0 mg/kg/injection, schedule: Q01DX009 (ip), vehicle: Klucel (hydroxypropylcellulose) (HPC) 100 % of control | dose: 200.0 mg/kg/injection, schedule: Q01DX009 (ip), vehicle: Klucel (hydroxypropylcellulose) (HPC) 103 % of control | dose: 400.0 mg/kg/injection, schedule: Q01DX009 (ip), vehicle: Klucel (hydroxypropylcellulose) (HPC) 87 % of control

CCCCCCCCCCCCCC(=O)N(C)C
inactive: dose: 50.0 mg/kg/injection, schedule: Q01DX009 (ip), vehicle: saline 92 % of control | dose: 100.0 mg/kg/injection, schedule: Q01DX009 (ip), vehicle: saline 98 % of control | [6] 95 % of control | dose: 200.0 mg/kg/injection, schedule: Q01DX009 (ip), vehicle: saline 95 % of control | [7] 103 % of control

CC[N+](CC)(CC)Cc1ccccc1
inactive: dose: 10.0 mg/kg/injection, schedule: Q04DX003 (ip), vehicle: saline with Tween-80 105 % of control | dose: 20.0 mg/kg/injection, schedule: Q04DX003 (ip), vehicle: saline with Tween-80 94 % of control | dose: 40.0 mg/kg/injection, schedule: Q04DX003 (ip), vehicle: saline with Tween-80 98 % of control

CCCCCCC(=O)CCCCCC/C=C/CC(O)C(O)C(N)(CO)C(=O)O (stereo unspecified)
inactive: dose: 12.5 mg/kg/injection, schedule: Q04DX002 (ip), vehicle: saline with Tween-80 86 % of control

CC(=O)OC1C(CO)OC(n2ccc3c(N)ncnc32)C1O (stereo unspecified)
inactive: dose: 5.0 mg/kg/injection, schedule: Q01DX001 (ip), vehicle: saline 104 % of control | dose: 10.0 mg/kg/injection, schedule: Q01DX001 (ip), vehicle: saline 117 % of control | dose: 20.0 mg/kg/injection, schedule: Q01DX001 (ip), vehicle: saline 117 % of control | dose: 40.0 mg/kg/injection, schedule: Q01DX001 (ip), vehicle: saline 110 % of control

O=C(COc1ccc(Br)cc1C(=O)O)Nc1ccccc1
inactive: [6] 96 % of control | [7] 97 % of control | [8] 94 % of control

N#CCCN(CC(O)c1cc2ccccc2c2ccccc12)C1CCCCC1 (stereo unspecified)
inactive: [12] 91 % of control | [9] 106 % of control | dose: 200.0 mg/kg/injection, schedule: Q01DX001 (ip), vehicle: saline with Tween-80 90 % of control | [10] 97 % of control | dose: 400.0 mg/kg/injection, schedule: Q01DX001 (ip), vehicle: saline with Tween-80 92 % of control | [11] 97 % of control

O=C(Cn1ccc(=O)[nH]c1=O)c1cc2ccccc2[nH]1
inactive: [1] 93 % of control | [2] 93 % of control | [3] 93 % of control

CNC(=O)c1ccccc1C(c1ccccc1)C1(O)CCCCC1 (stereo unspecified)
inactive: [6] 101 % of control | [7] 88 % of control | [8] 93 % of control

NNC(=O)c1nc2ccccc2s1
inactive: dose: 37.5 mg/kg/injection, schedule: Q04DX003 (ip), vehicle: saline sonified 97 % of control | dose: 75.0 mg/kg/injection, schedule: Q04DX003 (ip), vehicle: saline sonified 92 % of control | dose: 150.0 mg/kg/injection, schedule: Q04DX003 (ip), vehicle: saline sonified 94 % of control

[I][Pt+2][I].[NH-]c1ccc(S(=O)(=O)Nc2ccccn2)cc1.[NH-]c1ccc(S(=O)(=O)Nc2ccccn2)cc1
inactive: dose: 20.31 mg/kg/injection, schedule: Q04DX003 (ip), vehicle: saline with Tween-80 105 % of control | dose: 40.63 mg/kg/injection, schedule: Q04DX003 (ip), vehicle: saline with Tween-80 105 % of control | dose: 81.25 mg/kg/injection, schedule: Q04DX003 (ip), vehicle: saline with Tween-80 90 % of control | dose: 162.5 mg/kg/injection, schedule: Q04DX003 (ip), vehicle: saline with Tween-80 94 % of control | dose: 325.0 mg/kg/injection, schedule: Q04DX003 (ip), vehicle: saline with Tween-80 102 % of control

O=C(O)Cc1cc(O)c(CC(=O)O)cc1O
inactive: [1] 95 % of control | [2] 95 % of control | [3] 91 % of control

COC(=O)CCC(=O)c1ccc(C)cc1
inactive: dose: 100.0 mg/kg/injection, schedule: Q04DX003 (ip), vehicle: acetone 94 % of control | dose: 200.0 mg/kg/injection, schedule: Q04DX003 (ip), vehicle: acetone 104 % of control | dose: 400.0 mg/kg/injection, schedule: Q04DX003 (ip), vehicle: acetone 98 % of control

CCCc1cc(CCC)n2nc(N)nc2n1
inactive: [6] 96 % of control | [7] 94 % of control | [8] 94 % of control

Reference: PubChem BioAssay AID256 (DTP/NCI, 2004)
